How the values were obtained:
Assay type in all cases: in vivo, human
[1] = system: panelists; test: Cooling intensity: panelists taste aqueous solutions, compared with menthol at 2 ppm; settings: tasted by small group of panelists
[2] = system: panelist; test: Application in chewing gum: 2 g gum chewed by a panelist for 20 minutes, cooling perception; settings: for cooling perception rated higher than the control: control = peppermint oil gum
Protocol: The gum base, and half of the sorbitol were mixed, maltitol syrup was added and then mixed with the gum mass. The rest of the powdered ingredients (rest of the sorbitol, mannitol, ace-K, aspartame) were added and mixed for about 1 minute, at which point glycerine was added and the gum mass was mixed for about 5 minutes, to form the blank chewing gum mass. Peppermint oil was worked into the mass and a piece of the resulting gum (2 g) was chewed by a panelist for […] and spat out. […] The cooling perception lasted far 50 minutes.
The chemical in the peppermint oil was worked into the blank chewing gum mass from Example 12 a) and a piece of the resulting gum (2 g) was chewed by a panelist for 20 minutes and spat out. […] The cooling perception was rated 43% higher than the control and lasted for over 60 minutes.
The chemical and peppermint oil was worked into the blank chewing gum mass from Example 12 a) and a piece of the resulting gum (2 g) was chewed by a panelist for 20 minutes and spat out. […] The cooling perception was rated 40% higher than the control and lasts for over 60 minutes.
The chemical in the peppermint oil was worked into the blank chewing gum mass from Example 12 a) and a piece of the resulting gum (2 g) was chewed by a panelist for 20 minutes and spat out. […] The cooling perception was rated 27% higher than the control and lasted for over 60 minutes.

[3] = system: panelist; test: Application in toothpaste: toothgel brushed on a panelist's teeth, cooling perception; settings: for cooling perception rated higher than the control: control = peppermint oil toothgel
Protocol: The materials were mixed in the toothgel, a piece of toothgel was put on a toothbrush and a panelist's teeth were brushed. The mouth was rinsed with water and the water spat out. […] The cooling perception lasted for 40 minutes.
The materials were mixed in the toothgel, a piece of toothgel was put on a toothbrush and a panelist's teeth were brushed. The mouth was rinsed with water and the water spat out. […] The cooling perception was rated 24% higher than the control and lasted for 70 minutes.
The materials were mixed in the toothgel, a piece of toothgel was put on a toothbrush and a panelist's teeth were brushed. The mouth was rinsed with water and the water spat out. […] The cooling perception was rated 18% higher than the control and lasted for 60 minutes.
The materials were mixed in the toothgel, a piece of toothgel was put on a toothbrush and a panelist's teeth were brushed. The mouth was rinsed with water and the water spat out. […] The cooling perception was rated 95% higher than the control and lasted for 65 minutes.
The materials were mixed in the toothgel, a piece of toothgel was put on a toothbrush and a panelist's teeth were brushed. The mouth was rinsed with water and the water spat out. […] The cooling perception was rated 100% higher than the control and lasted for 40 minutes.
The materials were mixed in the toothgel, a piece of toothgel was put on a toothbrush and a panelist's teeth were brushed. The mouth was rinsed with water and the water spat out. […] The cooling perception was rated 30% higher than the control and lasted for over 35 minutes.

[4] = chewing gum: 0.50 g of 1% solution of compound in peppermint oil
[5] = toothgel: 0.10 g of 1% solution of compound in peppermint oil + 0.40 g peppermint oil
[6] = chewing gum: 0.05 g of 1% solution of compound in peppermint oil + 0.45 g peppermint oil
[7] = toothgel: 0.05 g of 1% solution of compound in peppermint oil + 0.45 g peppermint oil
[8] = toothgel: 0.50 g of 1% solution of compound in peppermint oil
[9] = toothgel: 0.025 g compound + 0.50 g peppermint oil

In the case of CC1(C)[C@H]2CC[C@]1(C)[C@H](OC(=O)CCC(=O)O)C2 [Example 1, 4-oxo-4-(1S,2R,4S)1,7,7-trimethylbicyclo[2.2.1]heptan-2-yloxybutanoic acid], the “Concentration with a cooling intensity similar to or slightly higher than that of a solution of menthol at 2 ppm” value (shortened to “Concentration”) [1] is reported as 0.003 ppm.

O=C(O)CCC(=O)O[C@H]1C[C@@H]2CC[C@H]1C2 [Example 3, 4-((1S,2S,4R)-bicyclo[2.2.1]heptan-2-yloxy)-4-oxobutanoic acid] was tested, and the cooling sensation felt [2, 4] was “cooling sensation”, the “duration of cooling perception” value [2, 4] was “over 60 minutes” and the “cooling perception rated higher than the control” value [2, 4] was 43%. For the same molecule, the cooling sensation felt [3, 5] was “intense cooling sensation”, the “duration of cooling perception” value [3, 5] was 70 min and the “cooling perception rated higher than the control” value [3, 5] was 24%.

In the case of CC1(C)[C@@H]2CC[C@@]1(C)[C@H](OC(=O)CCC(=O)O)C2 [Example 4, 4-oxo-4-((1R,2R,4R)-1,7,7-trimethylbicyclo[2.2.1]heptan-2-yloxy)butanoic acid], the “Concentration” value [1] is reported as 0.001 ppm, the cooling sensation felt [2, 6] is reported as “cooling sensation” and the “duration of cooling perception” value [2, 6] is reported as “over 60 minutes”. The “cooling perception rated higher than the control” value [2, 6] was 40%, the cooling sensation felt [3, 7] was “intense cooling sensation” and the “duration of cooling perception” value [3, 7] was 40 min. For the same molecule, the “cooling perception rated higher than the control” value [3, 7] was 100%.

With CCOC(=O)CC(=O)O[C@@H]1C2(C)CCC(C2)C1(C)C (stereo partly drawn) [Example 6, Ethyl (2R)-1,3,3-trimethylbicyclo[2.2.1]heptan-2-yl malonate] the “Concentration” value [1] was 0.10 ppm, the cooling sensation felt [2, 4] was “cooling sensation” and the “duration of cooling perception” value [2, 4] was “over 60 minutes”. The “cooling perception rated higher than the control” value [2, 4] was 27%, the cooling sensation felt [3, 5] was “intense cooling sensation” and the “duration of cooling perception” value [3, 5] was 60 min. The “cooling perception rated higher than the control” value [3, 5] was 18%, the cooling sensation felt [3, 8] was “intense cooling sensation” and the “duration of cooling perception” value [3, 8] was 65 min. For the same molecule, the “cooling perception rated higher than the control” value [3, 8] was 95%.

CN(C)C(=O)CCC(=O)O[C@@H]1C2(C)CCC(C2)C1(C)C (stereo partly drawn) [Example 7, (2R)-1,3,3-trimethylbicyclo[2.2.1]heptan-2-yl 4-(dimethylamino)-4-oxobutanoate] was tested, and the “Concentration” value [1] was 0.002 ppm.

For C[C@@H](N)C(=O)OC1C2(C)CCC(C2)C1(C)C (stereo partly drawn) [Example 8, D-alanine fenchyl ester], the “Concentration” value [1] was 0.20 ppm, the cooling sensation felt [3, 9] was “intense cooling sensation” and the “duration of cooling perception” value [3, 9] was “over 35 minutes”. The “cooling perception rated higher than the control” value [3, 9] was 30%.

CC1(C)[C@H]2CC[C@](C)(C2)[C@H]1OC(=O)CCC(=O)O [Example 9, 4-oxo-4-((1R,2R,4S)-1,3,3-trimethylbicyclo[2.2.1]heptan-2-yloxy)butanoic acid] was tested, and the “Concentration” value [1] was 0.10 ppm.

For CCNC(=O)C1CC(C)CCC1C(C)C (centres unmarked) [WS-3, N-ethyl p-menthanecarboxamide, reference compound], the “Concentration” value [1] was 1.5 ppm.

For CC(C)[C@@H]1CC[C@@H](C)C[C@H]1O [l-Menthol, reference compound], the “Concentration” value [1] was 2.0 ppm.

From patent publication US20080311232A1, “Cooling Compounds” (Givaudan, SA, priority 2007, published 2008)
